Data taken from patent publication US9096591B2, “Tetracyclic compounds” (Medivation Technologies, Inc., priority 2007, dated 2015).
Read-outs that look alike come from different tables or passages of the source.

How the values were obtained:
[1] = system: synaptosomes of cortex of rat brain; assay: Glutamate-induced 45Ca2+ uptake into synaptosomes; assay type: biochemical, Wistar rats; settings: for glutamate-induced 45Ca2+ uptake into synaptosomes of rat cortex, % of control: 50-100 μM; for % Ca of control (control-100%), glutamate-induced 45Ca2+ uptake into synaptosomes: rat cortex synaptosomes
Procedure: Synaptosomes were obtained from cerebral cortex of newborn (9-10 days) Wistar rats using standard Hajos method. The brain was homogenized with 10 volumes of cooled 0.32 M sucrose at 900 rpm. The homogenate was centrifuged at 1500 g for 10 min. and the resulted supernatant was centrifuged at 10000 g for 20 min. The radioactive label was accumulated by suspension of the synaptosomal P2-fraction in the incubation buffer A having the following composition: 132 mM NaCl, 5 mM KCl, 5 mM HEPES, 10 mM glucose, pH 7.4 (protein concentration of approximately 1.5-2 mg/ml). The mixture was further incubated for 5 min with 200 μM glutamate at 37° C. and then ^45Ca^2+ uptake was stopped by filtration through GF/B filters (Whatman, England) followed by three washes with cold buffer B (145 mM KCl, 10 mM Tris, 5.4 mM Trilon B, pH 7.4). The radioactivity probes were analyzed by fluid scintillation beta-analyzer (TriCarb, Perkin Elmer). All tests were performed in three parallel trials in 2-3 independent experiments. The amount of ^45Ca^2+ uptake was estimated by calculating the difference of radioactive label during the stimulation with glutamate and without the stimulation with agonist.
Specific ^45Ca^2+ uptake was estimated using the following equation: K(43/21)=[(Ca4−Ca3)/(Ca2−Ca1)]100%, where
Ca1—^45Ca^2+ uptake for the Control (without glutamate and the compound tested),
[…] glutamate-induced ^45Ca^2+ uptake (glutamate only),
Ca3—^45Ca^2+ uptake in the presence of the compound tested (without glutamate),
Ca4—^45Ca^2+ uptake in the presence of glutamate and the testing compound.
Statistical analysis of the results was performed using Student's t-test.

[2] = system: AMPA receptors; assay: AMPA-receptor activity: kainic acid-induced currents in Purkinje cells (patch-clamp); assay type: cell-based, rat; settings: mean±SEM, control=100%
Procedure: The analysis of effects of the testing compounds on AMPA receptors was carried out using an electrophysiological patch-clamp method in whole cell configuration (Hamill et al., 1980) of the Purkinje cell fresh isolated from the cerebellum of juvenile rats (12-15 days). The isolation was carried out using a modified method (Kaneda et al., 1988) in which cerebral 400-600 μm sections were incubated for 60 min in the temperature controlled chamber in 10 mL of buffer solution (150 mM NaCl, 5 mM KCl, 2 mM CaCl2, 2 mM MgSO4.7H2O, 10 mM HEPES, 15 mM glucose, pH 7.42). The incubation solution was exchanged with the incubation buffer with pronase (2 mg/mL) and collagenase (1 mg/mL) for 70 min. After a 20 min wash with the original buffer, all sections were placed into the Petri dish and were separated using a Pasteur pipette. All solutions were constantly aerated with 100% O2 at 34° C. The composition of extracellular saline was: 150 mM NaCl, 5 mM KCl, 2.6 mM CaCl2, 2 mM MgSO4.7H2O, 10 mM HEPES, 15 mM glucose, pH 7.36. The transmembrane current was induced as a result of the activation of AMPA receptors by a superfusion with the agonist solution (kainic acid). The currents were measured using borosilicate microelectrodes (resistance […]) filled with 100 mM KCl, 11 mM EGTA, 1 mM CaCl2, 1 mM MgCl2, 10 mM HEPES, 5 mM ATP, pH 7.2. The currents were registered using EPC-9 (HEKA, Germany) and recorded with Pulse software package which was also purchased from HEKA. The analysis of observations was carried out using Pulsefit (HEKA, Germany) and the statistical significance was analyzed using a Student's T-test criteria. Data are presented as mean±SEM in % of control values.
Compounds of the invention were tested in 3-5 neurons. Every concentration of compound was repeated three-four times in every neuron. Data are presented as mean±SEM in % of Control values (Table 13+14, FIGS. 8-12). Control value=100%.

[3] = system: rat brain mitochondria; assay: Ca2+-induced swelling of mitochondria (MPT pore opening); assay type: biochemical, Wistar rats; settings: for A540 increase in mitochondrial suspension after addition of 100 μM of compound: 100 μM compound
Procedure: Rat liver and brain mitochondria were prepared from male Wistar rats. The rats were euthanized in a CO2 chamber followed by decapitation the procedure being in compliance with the Guidelines for Animal Experiments at IPAC RAS. […]
Brain mitochondria were isolated from the pooled forebrains of two rats. The modified method of Sims was used to isolate and purify brain mitochondria in a Percoll gradient. The brain was homogenized in “buffer A” (225 mM mannitol, 75 mM sucrose, 5 mM HEPES, 1 mM EGTA, pH 7.4 [KOH]) and centrifuged for 10 min at 1300 g. The supernatant was centrifuged for 10 min at 10000 g, and then the pellet was suspended in 15% Percoll and layered on a discontinuous gradient consisting of 40 and 23% Percoll, respectively, which was then centrifuged for 10 min at 30000 g without using brakes. The mitochondria were collected from the interface of the lower two layers and after resuspension in “buffer A”, the suspension was centrifuged at 16600 g for 10 min, then the pellet was resuspended in “buffer A”, BSA (10 mg/mL) was added to bind free fatty acids; and the suspensions was centrifuged again at 6300 g for 10 min. Following centrifugation the pelleted mitochondria were re-suspended in isolation medium without EGTA to achieve a protein concentration of 15-20 mg/ml.
Mitochondrial swelling caused by influx of solutes through open PT pores results in an increase in light transmission (i.e., a reduced turbidity). This turbidity change offers a convenient and frequently used assay of the MPT by measurement of absorbance in mitochondrial suspensions. In the present study, the MPT induced by Ca^2+ and inorganic phosphate (Ca/Pi) was monitored by absorbance changes at 540 nm in a cuvette in a Beckman DU 640 spectrophotometer in 1 ml of buffer A plus 0.8 μM rotenone, 5 mM succinate, 1 mM KH2PO4 and 0.5 mg or 0.2 mg protein of isolated liver or brain mitochondria, accordingly. Reaction was started by the addition of triggering agent (Ca^2+). Pre-treatment and reaction were performed at 30° C. Swelling rate was quantified as ΔA540/min/mg, calculated, in all cases, from a tangent to the steepest portion of the plot of A540 versus time.
Ca^2+-induced Swelling of mitochondria was used as the primary screening test for compounds influence on MPT pore opening. […] But the inhibition of swelling may be connected not only with direct inhibition of MPT pore opening but also with the impairment of respiratory function of mitochondria and with the compounds action on calcium transport into mitochondria. For the primary estimation of these possibilities the mitochondrial membrane potential and calcium retention capacity of mitochondria were measured. […] New synthesized compounds (except C-14 and C-43) alone induced an increase of brain mitochondria suspension turbidity. The mechanism of such effect needs additional investigations.

[4] = system: rat brain mitochondria; assay: Mitochondrial membrane potential (safranine test); assay type: biochemical, Wistar rats; settings: at concentrations up to 100 mkM
Procedure: The same experimental conditions were used for the assessment of alterations of the mitochondrial membrane potential, except that safranine was included in incubation medium at a final concentration of 10 mkM and succinate was added before the compounds of the invention. This concentration of safranine was determined before hand as the optimal compromise between signal/baseline ratio and interference of safranine itself with swelling induced by Ca/Pi (safranine tended to enhance Ca/Pi-induced swelling at concentrations above 20 mkM). Changes in the status of the mPT pore were assessed spectrophotometrically at 554 and 524 nm in a cuvette in a Beckman DU 640 spectrophotometer. A554-524 represents the characteristics of mitochondrial potential and A554-characteristics of mitochondrial swelling.

[5] = concentration reducing to 50% the initial rate of turbidity fall after calcium addition, read-out: IC50, decrease of calcium-induced swelling of brain mitochondria
[6] = read-out: IC50, Ca2+-induced (25-50 μM) swelling of brain mitochondria, rat brain mitochondria, Ca2+ 25-50 μM

Row | SMILES | inhibition of glutamate-induced 45Ca2+ uptake into synaptosomes ([1]; 0.5 μM) [%] | glutamate-induced 45Ca2+ uptake into synaptosomes of rat cortex, % of control [1] [%] | % Ca of control (control-100%), glutamate-induced 45Ca2+ uptake into synaptosomes ([1]; compound 0.1 μM) [%] | % Ca of control (control-100%), glutamate-induced 45Ca2+ uptake into synaptosomes ([1]; compound 0.5 μM) [%] | % Ca of control (control-100%), glutamate-induced 45Ca2+ uptake into synaptosomes ([1]; compound 1 μM) [%] | % Ca of control (control-100%), glutamate-induced 45Ca2+ uptake into synaptosomes ([1]; compound 5 μM) [%] | % Ca of control (control-100%), glutamate-induced 45Ca2+ uptake into synaptosomes ([1]; compound 10 μM) [%] | % Ca of control (control-100%), glutamate-induced 45Ca2+ uptake into synaptosomes ([1]; compound 50 μM) [%] | % Ca of control (control-100%), glutamate-induced 45Ca2+ uptake into synaptosomes ([1]; compound 100 μM) [%] | kainic acid-induced currents in Purkinje cells, % of Control values ([2]; compound 10^−5 M) [%] | kainic acid-induced currents in Purkinje cells, % of Control values ([2]; compound 10^−6 M) [%] | kainic acid-induced currents in Purkinje cells, % of Control values ([2]; compound 10^−7 M) [%] | kainic acid-induced currents in Purkinje cells, % of Control values ([2]; compound 10^−8 M) [%] | kainic acid-induced currents in Purkinje cells, % of Control values ([2]; compound 10^−9 M) [%] | IC50 [3, 5] [µM] | A540 increase in mitochondrial suspension after addition of 100 μM of compound ([3]; rat brain mitochondria) [rel.units] | IC50 [3, 6] [µM] | depolarization of brain mitochondria [4] | concentration at which glutamate-induced 45Ca2+ uptake into synaptosomes was not affected [1] [µM] | kainic acid-induced currents in Purkinje cells, % of Control values ([2]; compound 3 × 10^−5 M) [%]
1 | CN1CCc2c(c3ccccc3n2CCc2nc(-c3ccncc3)cs2)C1 [Compound C1-4] | ~12.6 | ~131 | 99.1 ± 2.5 | 87.4 ± 3.7 | 96.2 ± 5.0 | 94.9 ± 5.7 | 94.3 ± 2.7 | 112.7 ± 10.1 | 131.5 ± 0.1 | 100 ± 9 | 109 ± 12 | 114 ± 5 | 119 ± 6 | 129 ± 9 | ~94 | 1 | 93.9 ± 16.4 | No depolarization |  | 
2 | CN1CCc2c(c3ccccc3n2CCc2noc(-c3ccncc3)n2)C1 [Compound C4-3] |  | ~126 | 93.2 ± 3.0 | 92.1 ± 3.3 | 101.0 ± 1.0 | 93.7 ± 6.8 | 94.7 ± 6.9 | 117.9 ± 6.0 | 125.6 ± 3.9 | 100 ± 6 | 139 ± 11 | 149 ± 15 | 145 ± 12 | 100 ± 3 | ~76 | 1 | 76 ± 12 | No depolarization | 0.1 to 50 | 80 ± 10
